ChEMBL document CHEMBL1147603, “Fluoropyrrolidine amides as dipeptidyl peptidase IV inhibitors” (Bioorg Med Chem Lett, 2004)

Experiments:
[1] = (§1) Plasma clearance was determined after 1 mg/kg (i.v.) / 2 mg/kg (p.o.) of compound administration; type: ADME, organism-based, Canis lupus familiaris; conditions: dog, iv, read-out: Clp
[2] = (§2) Volume of distribution at steady state was determined after 1 mg/kg (i.v.) / 2 mg/kg (p.o.) of compound administration; type: ADME, organism-based, Canis lupus familiaris; conditions: dog, in vivo, iv, read-out: Vdss
[3] = as §1; type: ADME, organism-based; conditions: rat, iv, read-out: Clp
[4] = (§3) Maximum plasma concentration reached by compound was determined after 2 mg/kg (p.o.) administration; type: ADME, organism-based; parameters: dose 2 mg/kg, route oral; conditions: rat, po
[5] = as §3; type: ADME, organism-based, Canis lupus familiaris; parameters: dose 2 mg/kg, route oral; conditions: dog, po
[6] = (§4) Half-life period was determined after 1 mg/kg (i.v.) / 2 mg/kg (p.o.) of compound administration; type: ADME, organism-based; conditions: rat, in vivo
[7] = as §2; type: ADME, organism-based; conditions: rat, in vivo, iv, read-out: Vdss
[8] = as §4; type: ADME, organism-based, Canis lupus familiaris; conditions: dog, in vivo

clearance [1]: 9.1 mL/min/kg
Vd [2]: 4.4 L/kg
clearance [3]: 24 mL/min/kg
Cmax [4]: 400 nM
Cmax [5]: 1000 nM
half-life [6]: 1.6 h
Vd [7]: 2.5 L/kg
half-life [8]: 5.9 h
Structure (SMILES): N[C@H](C(=O)N1CC[C@H](F)C1)[C@H]1CC[C@H](NS(=O)(=O)c2ccc(F)cc2F)CC1
